Results from patent publication US20250326799A1, “AGENTS INDUCING VASCULARISATION” (Coegin Pharma AB, priority 2022, published 2025).
“Also recorded” adds a separate entry of the source.

Experiments:
Assay type in all cases: cell-based
[1] = test system: Human umbilical cord endothelial cells (HUVECs); assay: Gene expression by PCR in endothelial cells; details: for expression of PECAM-1 (CD31): HUVECs
Experimental: Human umbilical cord endothelial cells were first treated with a scramble non-coding siRNA (NC) or siRNA for NRP-1, subsequently treated with FOL26 in concentrations of 10 nM, 100 nM, and 1000 nM, and endothelial tube formation and the total master segemnts were measured using ImageJ. gene expression of PECAM-1 (CD31) analyzed.
Cells on 6-well plates were washed with cold DPBS (Gibco, USA) and homogenized in Trizol reagent (Invitrogen, CA, USA). Total RNA was extracted using PureLink RNA Mini Kit (Invitrogen, CA, USA), followed by nucleic acid quantification with NanoDrop 2000c (Thermo Fisher Scientific, USA). To determine mRNA expression of target genes, real-time qPCR was performed using by KAPA SYBR FAST One-Step qRT-PCR Master Mix Kit (KAPA Biosystems, USA) on LightCycler480 system (Roche, Mannheim, Germany). All primers were purchased from miScript Primer Assays (Qiagen, Valencia, CA) and GAPDH mRNA expression of each sample was used for normalization. Cells on 6-well plates were washed with cold DPBS and lysed with the mixture of lysis buffer and protease inhibitors on ice, then centrifuged at 15,000 g for 20 min at 4° C. Supernatant was performed to measure the protein concentration using BCA Protein Assay Kit (Thermo Fisher Scientific, USA). Protein sample was loaded onto SDS-PAGE gels and separated with electrophoresis, followed by transferred to PVDF membranes (Millipore, USA). Membranes were blocked with 5% nonfat milk. Primary antibodies (Abcam, UK) and secondary antibodies were performed to incubate with membranes at 4° C. overnight and at room temperature for 1 hour respectively. […]

[2] = test system: human coronary artery smooth muscle cells (HCASMCs); assay: BrdU cell proliferation in HCASMCs; details: for vascular smooth muscle cell proliferation (DNA synthesis, uptake of BrdU, O.D. 450 nm): 10 nM, 100 nM, 1000 nM, compared to control; for smooth muscle cell proliferation (BrdU incorporation): addition of the peptide
Experimental: Cell proliferation was evaluated with BrdU Cell Proliferation Elisa Kit (Abcam, UK). After incubation at 37° C. overnight with respective complete medium, for NRP-1 knock down-relative experiments, HUVECs and HCASMCs on 96-well plates were transfected with siRNA/siRNA-NC directly; for test polypeptide stimulations, HUVECs and HCASMCs were starved with low-serum condition for additional 24 hours and 48 hours before treatments. At 32 hours after transfection or polypeptide stimulations, cells were cultured with BrdU reagent for another 16 hours to determine cell proliferation. Subsequent steps were performed as manufacturer's instructions and data were read by Wallac 1420 Victor 2 (Perkin Elmer, USA).
The effect of FOL-026 peptide treatment on smooth muscle cell proliferation (FIG. 25a) and apoptosis (FIG. 25c) induced with low-oxygen condition was evaluated with the uptake of BrdU (n=10 per group) and active caspase-3/-7 (n=6-8 per group) separately. H2O2 measurement (FIG. 25b) of smooth muscle cells pre-incubated with FOL-26 peptides after 50 ug/ml oxidized Low-density Lipoprotein (oxLDL) stimulation for 2 hours (n=6-7 per group). Representative images of scratch wound assay in vitro are shown (FIG. 26a) and the ability of wound healing (FIG. 26b) in human coronary smooth muscle cells (HCASMCs) treated with FOL-026 peptides was measured by image J software (n=10 per group). Scale bar=150 um. Data are presented as means±SEM and acquired from 3 to 4 independent replicate tests. *P<0.05, **P<0.01, ***P<0.001, ****P<0.0001 by one-way ANOVA and Dunnett's post-hoc test.
The effect of FOL-005 peptide on smooth muscle cell proliferation (FIG. 30a) was determined with BrdU incorporation in peptide-treated human coronary smooth muscle cells (HCASMCs). Scratch wound assay (FIG. 30b) of HCASMCs incubated with FOL-005 peptides for 5 hours was measured by image J software (n=10-12 per group) and representative pictures of smooth muscle cell migration into an in vitro scratch injury were shown (FIG. 30c). Scale bar=150 um.

[3] = test system: human umbilical vascular endothelial cells (HUVECs); assay: In vitro scratch wound closure, HUVECs; details: for wound closure rate (scratch injury): HUVECs, increasing concentration of peptide
Experimental: The impact of FOL-026 peptide on human umbilical vascular endothelial cells (HUVECs) proliferation (FIG. 18a) and apoptosis (FIG. 18c) induced with low-oxygen condition was determined by BrdU uptake (n=8-9 per group) and active caspase-3/-7 (n=7-10 per group) separately. The ROS level (FIG. 18b) activated by 50 ug/ml oxidized Low-density Lipoprotein (oxLDL) for 2 hours in cells pre-incubated with FOL-026 peptides was assessed using H2O2 measurement (n=4-8 per group). Representative pictures of endothelial migration into an in vitro scratch injury were shown (FIG. 19a) and the wound closure rate (FIG. 19b) in HUVECs stimulated with increasing concentration of FOL-026 peptide was quantified by image J software (n=8-9 per group). Scale bar=150 um. Data are presented as means±SEM and acquired from 3 to 4 independent replicate tests. *P<0.05, **P<0.01, ****P<0.0001 by one-way ANOVA and Dunnett's post-hoc test.
The efficiency of small interfering RNA transfection for 48 hours in HUVECs was confirmed by qRT-PCR (n=4) (FIG. 22a). Effect of FOL-026 peptide stimulation on cell proliferation (FIG. 22b) and cell apoptosis at 0.1% oxygen (FIG. 22c) in HUVECs transfected with siRNA-NC or siNRP-1 was evaluated by BrdU incorporation (n=4-7 per group) and active caspase-3/-7 ((n=4-7 per group). Representative pictures of endothelial cells at 0 and 5 hours after scratch wounding are shown in 23a. The wound closure rate (FIG. 23b) of siRNA-NC/siNRP-1-transfected HUVECs stimulated with increasing concentration of FOL-026 peptide was quantified by image J software (n=9-12 per group). Scale bar=150 um. Data are presented as means±SEM and acquired from 3 to 4 independent replicate tests. *P<0.05, **P<0.01, ***P<0.001, ****P<0.0001 by Student's t test for A, two-way ANOVA followed with Sidak's and Dunnett's multiple comparisons test for B, C and E.
The effect of FOL-005 peptide on smooth muscle cell proliferation (FIG. 30a) was determined with BrdU incorporation in peptide-treated human coronary smooth muscle cells (HCASMCs). […]

Sequence	expression of PECAM-1 (CD31) ([1]; 10 nM, 100 nM, 1000 nM tested)	vascular smooth muscle cell proliferation (DNA synthesis, uptake of BrdU, O.D. 450 nm) [2]	smooth muscle cell proliferation (BrdU incorporation) [2]	wound closure rate (scratch injury) [3]	expression of PECAM-1 (CD31) ([1]; 100 nM and 1000 nM)	angiogenesis related genes ([1]; endothelial cells)	vascular smooth muscle cell proliferation (DNA synthesis, uptake of BrdU, O.D. 450 nm) ([2]; listed as FOL26)	wound closure rate after NRP-1 knock-down ([3]; siRNA-NC/siNRP-1-transfected HUVECs, increasing concentration, 5 hours)
AEIDSIELSYGIK [FOL56]	increased expression of PECAM-1	significant increase in proliferation; also recorded: increases proliferation at all concentrations	–	–	–	–	–	–
VDTYDGDISVVYGLR [FOL-005]	–	–	increases	accelerate HUVEC wound closure	–	–	–	–
VDTYDGGISVVYGLR [FOL-026]	increased expression of PECAM-1	–	induces smooth muscle cell proliferation	accelerates HUVEC wound closure	increased	induces upregulation	significant increase in proliferation; also recorded: increase in O.D. (450 nm)	positive effect on wound closure
